Values quoted from earlier work, collected in patent publication US20030135108A1, “High throughput screening methods using magnetic resonance imaging agents” (priority 2001, published 2003).

Conditions: thermodynamic stability of the Gd(III) chelate complex

## O=C([O-])CN(CCN(CC(=O)[O-])CC(=O)[O-])CCN(CC(=O)[O-])CC(=O)[O-].[Gd+3] [Gd(DTPA)^2−]
  stability constant (K), formation constant, logK: 22.4

## O=C([O-])CN1CCN(CC(=O)[O-])CCN(CC(=O)O)CCN(CC(=O)[O-])CC1.[Gd+3] [Gd-DOTA]
  stability constant (K), formation constant, logK: 28.5
